Test results as given in patent publication US20230146239A1 (THE SCRIPPS RESEARCH INSTITUTE, priority 2020, published 2023).
Values after ≈ are worked out from the molar mass of the structure shown. Read-outs that look alike come from different tables or passages of the source.

Assays:
[1] = test system: VanA VRE E. faecalis BM 4166 and E. faecium ATCC BAA-2317; assay type: cell-based, Enterococcus faecalis, Enterococcus faecium; details: 10 μM added at 5 minutes
Description: The above bacterial solution was subjected to a subculture to obtain fresh mid-log phase bacterial cells (incubation time=6 hours). The bacterial suspension was diluted to a total volume of 7 mL with OD600=0.6.
After the cultured bacteria were harvested (3000 rpm, 4° C., 20 minutes), the white bacterial precipitate was washed and resuspended in 5 mM glucose and 5 mM HEPES buffer (1:1, 5.00 mL, pH=7.2).

[2] = test system: VanA E. faecalis (BM 4166); assay: In vitro antimicrobial microdilution assay (MIC); assay type: cell-based, Enterococcus faecalis
[3] = test system: VanA E. faecium (ATCC BAA-2317); assay: In vitro antimicrobial microdilution assay (MIC); assay type: cell-based, Enterococcus faecium
[4] = test system: VanA E. faecalis (ATCC BAA-2573); assay: In vitro antimicrobial microdilution assay (MIC); assay type: cell-based, Enterococcus faecalis
[5] = test system: VanA E. faecium (TX2465); assay: In vitro antimicrobial microdilution assay (MIC); assay type: cell-based, Enterococcus faecium
[6] = test system: two VanA VRE strains (E. faecalis BM4166, E. faecium ATCC BAA-2317); assay: Resistance development assay, durability (serial passaging at 0.5×MIC); assay type: cell-based, Enterococcus faecalis, Enterococcus faecium; details: 50 passages
Description: The lowest concentration of antibiotic (in μg/mL) capable of eliminating cell growth in the wells is the reported MIC value.
A new MIC assay was performed with the same protocol above. This process was repeated for 50 passages, and the fold increase in MIC was determined after each passage.

[7] = test system: VanA VRE E. faecalis (BM 4166); assay: Impact of added LTA, phosphate, POPE on antimicrobial activity (MIC); assay type: cell-based, Enterococcus faecalis
Description: When NaH2PO4 or POPE was used instead of LTA, 10% brain-heart infusion broth containing 0.002% Tween®-80 with 100 μg/mL NaH2PO4 or 100 μg/mL POPE was used as the culture medium used for serial dilution. When additional G3 (H2N^+(CH2)3NHC(NH2)═NH2^+.2TFA) or Mg^2+ was used, 10% brain-heart infusion broth containing 0.002% Tween®-80 with 100 μg/mL G3 or 100 μg/mL MgCl2 and 100 μg/mL lipoteichoic acid was used as the culture medium for serial dilution of study group, 10% brain-heart infusion broth containing 0.002% Tween®-80 with 100 μg/mL G3 was used as the culture medium for serial dilution of control group.

CN[C@H](CC(C)C)C(=O)N[C@H]1C(=O)N[C@@H](CC(N)=O)C(=O)N[C@H]2C(=O)N[C@H]3C(=O)N[C@H](C(=O)N[C@H](C(=O)N[C@@H](CCCNC(N)=O)C(=O)OC)c4cc(O)cc(O)c4-c4cc3ccc4O)[C@H](O)c3ccc(c(Cl)c3)Oc3cc2cc(c3OC2OC(CO)C(O)[C@H](O)C2O[C@H]2CC(C)(NCc3ccc(-c4ccc(Cl)cc4)cc3)[C@H](O)[C@H](C)O2)Oc2ccc(cc2Cl)[C@H]1O (some centres unmarked) [Compound 23, Cit(OMe)-CBP-vancomycin]
bacterial cell membrane permeabilization [1]: reduced bacteria cell permeabilization

CN[C@H](CC(C)C)C(=O)N[C@H]1C(=O)N[C@@H](CC(N)=O)C(=O)N[C@H]2C(=O)NC3C(=O)N[C@H](C(=O)N[C@H](C(=O)N[C@@H](CCCNC(=N)N)C(N)=O)c4cc(O)cc(O)c4-c4cc3ccc4O)[C@H](O)c3ccc(c(Cl)c3)Oc3cc2cc(c3OC2OC(CO)C(O)[C@H](O)[C@@H]2O[C@H]2CC(C)(N)[C@H](O)[C@H](C)O2)Oc2ccc(cc2Cl)[C@H]1O (some centres unmarked) [Compound 12, Arg(NH2)-vancomycin]
MIC, VanA E. faecalis BM 4166 [2]: 16 µg/mL (≈ 9.97 µM) | MIC, VanA E. faecium ATCC BAA-2317 [3]: 4 µg/mL (≈ 2.49 µM) | MIC, VanA E. faecalis ATCC BAA-2573 [4]: 4 µg/mL (≈ 2.49 µM) | MIC, VanA E. faecium TX2465 [5]: 8 µg/mL (≈ 4.99 µM)

CCCCCCCCCC(=O)N[C@@H](Cc1c[nH]c2ccccc12)C(=O)N[C@H](CC(N)=O)C(=O)N[C@@H](CC(=O)O)C(=O)N[C@@H]1C(=O)NCC(=O)N[C@@H](CCCN)C(=O)N[C@@H](CC(=O)O)C(=O)N[C@H](C)C(=O)N[C@@H](CC(=O)O)C(=O)NCC(=O)N[C@H](CO)C(=O)N[C@@H]([C@H](C)CC(=O)O)C(=O)N[C@@H](CC(=O)c2ccccc2N)C(=O)O[C@@H]1C [daptomycin]
resistance acquisition on serial passaging [6]: raise resistance more rapidly and in a more pronounced manner

CC(=O)NC[C@H]1CN(c2ccc(N3CCOCC3)c(F)c2)C(=O)O1 [linezolid]
resistance acquisition on serial passaging [6]: raise resistance more rapidly and in a more pronounced manner

CN(C)c1cc(NC(=O)CNC(C)(C)C)c(O)c2c1C[C@H]1C[C@H]3[C@H](N(C)C)C(O)=C(C(N)=O)C(=O)[C@@]3(O)C(O)=C1C2=O [tigecycline]
resistance acquisition on serial passaging [6]: raise resistance more rapidly and in a more pronounced manner

CN[C@H](CC(C)C)C(=O)N[C@H]1C(=O)N[C@@H](CC(N)=O)C(=O)N[C@H]2C(=O)N[C@H]3C(=O)N[C@H](C(=O)N[C@H](C(=O)N[C@@H](CCCNC(=N)N)C(=O)O)c4cc(O)cc(O)c4-c4cc3ccc4O)[C@H](O)c3ccc(c(Cl)c3)Oc3cc2cc(c3OC2OC(CO)C(O)[C@H](O)C2O[C@H]2CC(C)(NCc3ccc(-c4ccc(Cl)cc4)cc3)[C@H](O)[C@H](C)O2)Oc2ccc(cc2Cl)[C@H]1O (some centres unmarked) [Compound 21, Arg-CBP-vancomycin]
bacterial cell membrane permeabilization [1]: reduced bacteria cell permeabilization

CN[C@H](CC(C)C)C(=O)N[C@H]1C(=O)N[C@@H](CC(N)=O)C(=O)N[C@H]2C(=O)NC3C(=O)N[C@H](C(=O)N[C@H](C(=O)NCCCCNC(=N)N)c4cc(O)cc(O)c4-c4cc3ccc4O)[C@H](O)c3ccc(c(Cl)c3)Oc3cc2cc(c3OC2OC(CO)C(O)[C@H](O)[C@@H]2O[C@H]2CC(C)(N)[C@H](O)[C@H](C)O2)Oc2ccc(cc2Cl)[C@H]1O (some centres unmarked) [Compound 7, G4-vancomycin]
MIC, VanA E. faecalis BM 4166 [2]: 16 µg/mL (≈ 10.2 µM) | MIC, VanA E. faecium ATCC BAA-2317 [3]: 4 µg/mL (≈ 2.56 µM) | MIC, VanA E. faecalis ATCC BAA-2573 [4]: 4 µg/mL (≈ 2.56 µM) | MIC, VanA E. faecium TX2465 [5]: 16 µg/mL (≈ 10.2 µM)

CN[C@H](CC(C)C)C(=O)N[C@H]1C(=O)N[C@@H](CC(N)=O)C(=O)N[C@H]2C(=O)NC3C(=O)N[C@H](C(=O)N[C@H](C(=O)NC(CNC(=N)N)CNC(=N)N)c4cc(O)cc(O)c4-c4cc3ccc4O)[C@H](O)c3ccc(c(Cl)c3)Oc3cc2cc(c3OC2OC(CO)C(O)[C@H](O)[C@@H]2O[C@H]2CC(C)(N)[C@H](O)[C@H](C)O2)Oc2ccc(cc2Cl)[C@H]1O (some centres unmarked) [Compound 14, DiG-vancomycin]
MIC, VanA E. faecalis BM 4166 [2]: 8 µg/mL (≈ 4.99 µM) | MIC, VanA E. faecium ATCC BAA-2317 [3]: 1 µg/mL (≈ 0.623 µM) | MIC, VanA E. faecalis ATCC BAA-2573 [4]: 2 µg/mL (≈ 1.25 µM) | MIC, VanA E. faecium TX2465 [5]: 4 µg/mL (≈ 2.49 µM)

N=C(N)NCCCN [G3^+, H2N(CH2)3NHC(═NH2)NH2^+]
MIC ([7]; E. faecalis BM 4166, POPE 100 μg/mL, read-out: MIC, +POPE): > 800 µg/mL | MIC ([7]; E. faecalis BM 4166, read-out: MIC, −POPE): > 800 µg/mL

CN[C@H](CC(C)C)C(=O)N[C@H]1C(=O)N[C@@H](CC(N)=O)C(=O)N[C@H]2C(=O)NC3C(=O)N[C@H](C(=O)N[C@H](C(=O)N[C@@H](CCCNC(=N)N)C(=O)OC)c4cc(O)cc(O)c4-c4cc3ccc4O)[C@H](O)c3ccc(c(Cl)c3)Oc3cc2cc(c3OC2OC(CO)C(O)[C@H](O)[C@@H]2O[C@H]2CC(C)(N)[C@H](O)[C@H](C)O2)Oc2ccc(cc2Cl)[C@H]1O (some centres unmarked) [Compound 10, Arg(OMe)-vancomycin]
MIC, VanA E. faecalis BM 4166 [2]: 8 µg/mL (≈ 4.94 µM) | MIC, VanA E. faecium ATCC BAA-2317 [3]: 8 µg/mL (≈ 4.94 µM) | MIC, VanA E. faecalis ATCC BAA-2573 [4]: 4 µg/mL (≈ 2.47 µM) | MIC, VanA E. faecium TX2465 [5]: 8 µg/mL (≈ 4.94 µM)

CN[C@H](CC(C)C)C(=O)N[C@H]1C(=O)N[C@@H](CC(N)=O)C(=O)N[C@H]2C(=O)NC3C(=O)N[C@H](C(=O)N[C@H](C(=O)NCCNC(=N)N)c4cc(O)cc(O)c4-c4cc3ccc4O)[C@H](O)c3ccc(c(Cl)c3)Oc3cc2cc(c3OC2OC(CO)C(O)[C@H](O)[C@@H]2O[C@H]2CC(C)(N)[C@H](O)[C@H](C)O2)Oc2ccc(cc2Cl)[C@H]1O (some centres unmarked) [Compound 6, G2-vancomycin]
MIC, VanA E. faecalis BM 4166 [2]: 16 µg/mL (≈ 10.4 µM) | MIC, VanA E. faecium ATCC BAA-2317 [3]: 4 µg/mL (≈ 2.61 µM) | MIC, VanA E. faecalis ATCC BAA-2573 [4]: 8 µg/mL (≈ 5.22 µM) | MIC, VanA E. faecium TX2465 [5]: 16 µg/mL (≈ 10.4 µM)

CN[C@H](CC(C)C)C(=O)N[C@H]1C(=O)N[C@@H](CC(N)=O)C(=O)N[C@H]2C(=O)NC3C(=O)N[C@H](C(=O)N[C@H](C(=O)NCCCCCCNC(=N)N)c4cc(O)cc(O)c4-c4cc3ccc4O)[C@H](O)c3ccc(c(Cl)c3)Oc3cc2cc(c3OC2OC(CO)C(O)[C@H](O)[C@@H]2O[C@H]2CC(C)(N)[C@H](O)[C@H](C)O2)Oc2ccc(cc2Cl)[C@H]1O (some centres unmarked) [Compound 8, G6-vancomycin]
MIC, VanA E. faecalis BM 4166 [2]: 16 µg/mL (≈ 10.1 µM) | MIC, VanA E. faecium ATCC BAA-2317 [3]: 4 µg/mL (≈ 2.52 µM) | MIC, VanA E. faecalis ATCC BAA-2573 [4]: 4 µg/mL (≈ 2.52 µM) | MIC, VanA E. faecium TX2465 [5]: 16 µg/mL (≈ 10.1 µM)

CN[C@H](CC(C)C)C(=O)N[C@H]1C(=O)N[C@@H](CC(N)=O)C(=O)N[C@H]2C(=O)N[C@H]3C(=O)N[C@H](C(=O)N[C@H](C(=O)N[C@@H](CCCNC(=N)N)C(=O)O)c4cc(O)cc(O)c4-c4cc3ccc4O)[C@H](O)c3ccc(c(Cl)c3)Oc3cc2cc(c3OC2OC(CO)C(O)[C@H](O)C2O[C@H]2CC(C)(N)[C@H](O)[C@H](C)O2)Oc2ccc(cc2Cl)[C@H]1O (some centres unmarked) [Compound 11, Arg-vancomycin]
MIC ([2]; Enterococcus faecalis, read-out: MIC, VanA E. faecalis BM 4166): 63 µg/mL (≈ 39.2 µM) | MIC ([3]; Enterococcus faecium, ATCCBAA2317, read-out: MIC, VanA E. faecium ATCC BAA-2317): 63 µg/mL (≈ 39.2 µM)

CN[C@H](CC(C)C)C(=O)N[C@H]1C(=O)N[C@@H](CC(N)=O)C(=O)N[C@H]2C(=O)NC3C(=O)N[C@H](C(=O)N[C@H](C(=O)N[C@@H](CCCNC(N)=O)C(=O)OC)c4cc(O)cc(O)c4-c4cc3ccc4O)[C@H](O)c3ccc(c(Cl)c3)Oc3cc2cc(c3OC2OC(CO)C(O)[C@H](O)[C@@H]2O[C@H]2CC(C)(N)[C@H](O)[C@H](C)O2)Oc2ccc(cc2Cl)[C@H]1O (some centres unmarked) [Compound 13, Cit(OMe)-vancomycin]
MIC, VanA E. faecalis BM 4166 [2]: 63 µg/mL (≈ 38.9 µM) | MIC, VanA E. faecium ATCC BAA-2317 [3]: 31 µg/mL (≈ 19.1 µM) | MIC, VanA E. faecalis ATCC BAA-2573 [4]: 16 µg/mL (≈ 9.87 µM) | MIC, VanA E. faecium TX2465 [5]: 63 µg/mL (≈ 38.9 µM)

CN[C@H](CC(C)C)C(=O)N[C@H]1C(=O)N[C@@H](CC(N)=O)C(=O)N[C@H]2C(=O)N[C@H]3C(=O)N[C@H](C(=O)N[C@H](C(=O)N[C@@H](CCCNC(=N)N)C(=O)OC)c4cc(O)c(CN[C@@H](CCCNC(=N)N)C(=O)OC)c(O)c4-c4cc3ccc4O)[C@H](O)c3ccc(c(Cl)c3)Oc3cc2cc(c3OC2OC(CO)C(O)[C@H](O)C2O[C@H]2CC(C)(N)[C@H](O)[C@H](C)O2)Oc2ccc(cc2Cl)[C@H]1O (some centres unmarked) [Compound 28, Arg(OMe)-Arg(OMe)^Ar-vancomycin]
MIC ([2]; Enterococcus faecalis; read-out: MIC, VanA E. faecalis BM 4166): 8 µg/mL (≈ 4.4 µM) | MIC ([3]; Enterococcus faecium, ATCCBAA2317; read-out: MIC, VanA E. faecium ATCC BAA-2317): 2 µg/mL (≈ 1.1 µM) | MIC ([4]; Enterococcus faecalis, ATCCBAA2573, read-out: MIC, VanA E. faecalis ATCC BAA-2573): 1 µg/mL (≈ 0.55 µM) | MIC ([5]; Enterococcus faecium, read-out: MIC, VanA E. faecium TX2465): 8 µg/mL (≈ 4.4 µM)
